One test deals with human D2L receptor (Homo sapiens, UniProt P14416). Nature of the test: Dopamine D2L receptor binding assay ([3H]-spiperone). To be noted: 10 nM test drug, [3H]-spiperone 0.5 nM, human D2L receptor-expressing CHO cell membrane; for inhibition at 0.01 µM: read-out: BINDING INHIBITION RATE (%) D2L 10 nM. The method, boiled down:
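CHO membranes expressing human D2L incubated 60 min at RT with 0.5 nM [³H]-spiperone in 50 mM Tris-HCl pH 7.6; filtration and scintillation counting. Nonspecific binding with 10 μM spiperone; % binding inhibition at 10 nM test drug.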

A further test concerns the target T1, human 5-HT2A receptor (Homo sapiens, UniProt P28223).
T1 construct: expressed in transfected cells; host or cells: CHO cells (membrane preparation)
Kind of test: Serotonin 5-HT2A receptor binding assay ([3H]-ketanserin). The conditions noted are these: [3H]-ketanserin 1 nM, human 5-HT2A receptor-expressing CHO cell membrane; for inhibition at 0.001 µM: read-out: BINDING INHIBITION RATE (%) 5HT2A 1 nM; for inhibition at 0.01 µM: 10 nM test drug, read-out: BINDING INHIBITION RATE (%) 5HT2A 10 nM. Summed up:
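Membranes from CHO cells expressing human 5-HT2A incubated 15 min at 37 °C with 1 nM [3H]-ketanserin in 50 mM Tris-HCl pH 7.6, then filtered and counted by scintillation. Nonspecific binding defined with 10 μM MDL-100907; inhibition rate determined at 1 nM or 10 nM test drug.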

In the next test the target is T2, human 5-HT6 receptor (Homo sapiens, UniProt P50406).
T2 construct: expressed in transfected cells; host or cells: CHO cells (membrane preparation)
T2 sequence (P50406 whole entry): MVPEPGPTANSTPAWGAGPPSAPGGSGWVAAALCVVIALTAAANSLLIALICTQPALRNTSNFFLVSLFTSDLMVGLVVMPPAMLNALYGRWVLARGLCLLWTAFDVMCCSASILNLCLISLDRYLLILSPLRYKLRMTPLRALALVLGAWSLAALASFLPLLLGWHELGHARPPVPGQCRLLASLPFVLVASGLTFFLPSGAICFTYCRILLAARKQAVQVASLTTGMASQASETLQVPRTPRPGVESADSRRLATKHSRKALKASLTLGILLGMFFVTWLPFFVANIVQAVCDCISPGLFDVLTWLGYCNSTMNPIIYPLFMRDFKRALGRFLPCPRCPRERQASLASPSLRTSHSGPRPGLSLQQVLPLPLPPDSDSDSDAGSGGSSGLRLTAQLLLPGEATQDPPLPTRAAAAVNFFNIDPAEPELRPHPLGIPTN
Nature of the test: Serotonin 5-HT6 receptor binding assay ([3H]-clozapine). The conditions noted are these: 100 nM test drug, [3H]-clozapine 2 nM, human 5-HT6 receptor-expressing CHO cell membrane; for inhibition at 0.1 µM: read-out: BINDING INHIBITION RATE (%) 5HT6 100 nM. Summed up: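 Membranes from CHO cells expressing human 5-HT6 were incubated with [3H]-clozapine (2 nM final) for 40 min at room temperature in 50 mM Tris-HCl pH 7.6, 4 mM CaCl2, 0.5 mM EDTA. Bound radioactivity was filtered and counted. Values are % binding inhibition at 100 nM test drug, with nonspecific binding defined by 10 μM SB-258585.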

The target in another test is T3, human α1D receptor (Homo sapiens, UniProt P25100).
T3 construct: expressed in transfected cells; host or cells: CHO cells (membrane preparation)
T3 sequence (P25100 1-572): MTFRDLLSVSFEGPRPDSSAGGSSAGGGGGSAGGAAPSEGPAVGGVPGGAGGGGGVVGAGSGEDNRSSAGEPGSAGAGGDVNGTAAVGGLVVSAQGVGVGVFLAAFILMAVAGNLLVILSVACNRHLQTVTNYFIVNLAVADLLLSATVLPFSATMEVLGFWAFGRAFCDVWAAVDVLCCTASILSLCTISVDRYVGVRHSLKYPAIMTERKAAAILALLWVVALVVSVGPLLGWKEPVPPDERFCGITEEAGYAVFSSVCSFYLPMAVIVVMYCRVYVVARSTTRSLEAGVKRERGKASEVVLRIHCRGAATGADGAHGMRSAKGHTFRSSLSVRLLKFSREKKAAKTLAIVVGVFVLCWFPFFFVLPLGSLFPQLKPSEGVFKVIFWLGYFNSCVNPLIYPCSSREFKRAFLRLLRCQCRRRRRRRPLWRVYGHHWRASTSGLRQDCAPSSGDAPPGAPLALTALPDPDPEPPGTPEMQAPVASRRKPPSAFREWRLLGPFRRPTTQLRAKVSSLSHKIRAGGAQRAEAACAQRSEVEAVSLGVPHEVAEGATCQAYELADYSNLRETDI
Kind of test: Adrenaline α1D receptor binding assay ([3H]-prazosin). The conditions noted are these: 100 nM test drug, [3H]-prazosin 0.6 nM, human α1D receptor-expressing CHO cell membrane; for inhibition at 0.1 µM: read-out: BINDING INHIBITION RATE (%) α1D 100 nM. Summed up: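 Membranes from CHO cells expressing human α1D, incubated 30 min at room temperature with 0.6 nM [3H]-prazosin in 50 mM Tris-HCl pH 7.6, filtered and counted. Nonspecific binding defined with 1 μM prazosin. Test drug at 100 nM, reported as percent inhibition of binding.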

Chain of human D2L receptor (P14416 whole entry): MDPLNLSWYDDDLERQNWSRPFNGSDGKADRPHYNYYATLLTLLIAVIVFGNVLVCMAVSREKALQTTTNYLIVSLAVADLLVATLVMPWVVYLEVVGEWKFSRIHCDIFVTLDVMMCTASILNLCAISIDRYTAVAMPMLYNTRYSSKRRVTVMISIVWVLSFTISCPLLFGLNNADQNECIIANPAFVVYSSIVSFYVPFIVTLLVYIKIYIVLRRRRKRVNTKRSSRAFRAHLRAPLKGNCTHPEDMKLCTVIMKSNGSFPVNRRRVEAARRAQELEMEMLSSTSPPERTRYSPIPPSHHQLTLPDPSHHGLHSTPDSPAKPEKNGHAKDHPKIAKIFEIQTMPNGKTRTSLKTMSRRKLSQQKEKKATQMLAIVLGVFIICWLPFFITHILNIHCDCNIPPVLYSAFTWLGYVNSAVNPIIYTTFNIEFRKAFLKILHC
T1 sequence (P28223 whole entry): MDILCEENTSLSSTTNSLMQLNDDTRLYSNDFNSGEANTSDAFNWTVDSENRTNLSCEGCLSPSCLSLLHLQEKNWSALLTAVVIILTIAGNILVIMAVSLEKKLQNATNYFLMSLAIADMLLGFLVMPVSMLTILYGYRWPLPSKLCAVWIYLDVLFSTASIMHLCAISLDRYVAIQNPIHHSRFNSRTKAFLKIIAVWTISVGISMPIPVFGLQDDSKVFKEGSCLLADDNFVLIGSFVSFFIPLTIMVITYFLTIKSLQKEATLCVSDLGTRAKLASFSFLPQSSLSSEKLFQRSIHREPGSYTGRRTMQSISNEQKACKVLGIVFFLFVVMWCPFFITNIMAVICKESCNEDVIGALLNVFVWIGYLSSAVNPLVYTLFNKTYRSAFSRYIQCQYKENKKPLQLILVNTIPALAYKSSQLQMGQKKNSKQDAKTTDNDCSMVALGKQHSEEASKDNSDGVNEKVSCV

As to `O=C(c1ccc(F)cc1)C1CCN(C[C@H]2CCCN(C(=O)c3cc4ccc(Cl)cc4[nH]3)C2)CC1` [Example 45], the inhibition at 0.01 µM at human D2L receptor came to 82%. Moreover, on human 5-HT2A receptor (1 nM test drug), the inhibition at 0.001 µM is 84%. Further, the inhibition at 0.1 µM at human 5-HT6 receptor was found to be 97%; on human α1D receptor, 46%.
On to `Cc1cc2c3c(c1)cc(C(=O)N1CCC[C@H]1CCN1CCC(C(=O)c4ccc(F)cc4)CC1)n3CCC2=O` [Example 46], for which the inhibition at 0.01 µM at human D2L receptor was 58%. Moreover, at human 5-HT2A receptor (1 nM test drug), the inhibition at 0.001 µM amounted to 48%. Moreover, the inhibition at 0.1 µM at human 5-HT6 receptor was determined as 82%; at human α1D receptor, 54%.
For `COc1cc2cc(C(=O)N3CCC[C@H]3CCN3CCC(C(=O)c4ccc(F)cc4)CC3)[nH]c2cn1` [Example 50], at human D2L receptor, the inhibition at 0.01 µM was 71%. The inhibition at 0.001 µM on human 5-HT2A receptor (1 nM test drug) turned out to be 66%. The inhibition at 0.1 µM on human 5-HT6 receptor was determined as 88%; on human α1D receptor, 43%.
For the compound `O=C(c1ccc(F)cc1)C1CCN(CC[C@@H]2CCCN2C(=O)c2cc(-c3ccccc3)n[nH]2)CC1` [Example 51], at human D2L receptor, the inhibition at 0.01 µM came to 81%. The inhibition at 0.001 µM on human 5-HT2A receptor (1 nM test drug) is 76%. Moreover, the figures for the inhibition at 0.1 µM at human 5-HT6 receptor and at human α1D receptor were 95% and 51%, respectively.
The matching figures for `O=C(c1ccc(F)cc1)C1CCN(CC[C@@H]2CCCN2C(=O)c2[nH]c3ccccc3c2C(=O)N2CCCCC2)CC1` [Example 54]: 71%, 7%, 81% and 63%.
As to `N#Cc1ccc2[nH]c(C(=O)N3CCC[C@H]3CCN3CCC(C(=O)c4ccc(F)cc4)CC3)cc2c1` [Example 56], on human D2L receptor, the inhibition at 0.01 µM amounted to 84%. Moreover, the inhibition at 0.001 µM at human 5-HT2A receptor (1 nM test drug) turned out to be 70%. Moreover, the inhibition at 0.1 µM at human 5-HT6 receptor turned out to be 91%; at human α1D receptor, 70%.
As to `O=C(c1nc2cc(Cl)ccc2[nH]1)N1CCCC[C@H]1CCN1CCC(c2c[nH]c3ccccc23)CC1` [Example 58], the values for the inhibition at 0.01 µM on human D2L receptor and on human 5-HT2A receptor were 57% and 91%, respectively. Besides, the inhibition at 0.001 µM on human 5-HT2A receptor (1 nM test drug) turned out to be 74%. Moreover, the inhibition at 0.1 µM on human 5-HT6 receptor came to 98%; on human α1D receptor, 97%.
As to `Cc1ccc2nc(C(=O)N3CCC[C@H]3CCN3CCC(C(=O)c4ccc(F)cc4)CC3)[nH]c2c1` [Example 59], the inhibition at 0.01 µM on human D2L receptor was 91%. Besides, on human 5-HT2A receptor (1 nM test drug), the inhibition at 0.001 µM was 58%. The inhibition at 0.1 µM on human 5-HT6 receptor amounted to 87%; on human α1D receptor, 95%.
For `COc1ccc2[nH]c(C(=O)N3CCC[C@H]3CCN3CCC(c4cn(-c5ccc(F)cc5)c5ccc(Cl)cc45)CC3)cc2c1` [Example 60], the inhibition at 0.01 µM at human D2L receptor was 76%; on human 5-HT2A receptor, 78%. The inhibition at 0.1 µM on human 5-HT6 receptor is 97%; on human α1D receptor, 76%.
`Cc1cccc2cc(C(=O)N3CCC[C@H]3CCN3CCC(C(=O)c4ccc(F)cc4)CC3)[nH]c12` [Example 61]: the inhibition at 0.01 µM on human D2L receptor was found to be 69%. The inhibition at 0.001 µM at human 5-HT2A receptor (1 nM test drug) came to 46%. Besides, the inhibition at 0.1 µM on human 5-HT6 receptor is 82%; at human α1D receptor, 29%.
For the compound `O=C(c1ccc(F)cc1)C1CCN(CC[C@@H]2CCCN2C(=O)c2cc3c(F)cccc3[nH]2)CC1` [Example 62], at human D2L receptor, the inhibition at 0.01 µM worked out at 81%. Also, the inhibition at 0.001 µM on human 5-HT2A receptor (1 nM test drug) worked out at 61%. The figures for the inhibition at 0.1 µM on human 5-HT6 receptor and on human α1D receptor were 87% and 43%, respectively.
The matching figures for `O=C(c1ccc(F)cc1)C1CCN(CC[C@@H]2CCCN2C(=O)c2cc3ccc(F)cc3[nH]2)CC1` [Example 159, (S)-(6-Fluoro-1H-indol-2-yl)(2-(2-(4-(4-fluorobenzoyl)piperidin-1-yl)ethyl)pyrrolidin-1-yl)-methanone]: 93%, 78%, 96% and 71%.
As for `O=C(c1ccc(F)cc1)C1CCN(CC[C@@H]2CCCN2C(=O)c2cc3ccc(OC(F)(F)F)cc3[nH]2)CC1` [Example 160, (S)-(2-(2-(4-(4-Fluorobenzoyl)piperidin-1-yl)ethyl)pyrrolidin-1-yl)(6-(trifluoromethoxy)-1H-indol-2-yl)methanone], the inhibition at 0.01 µM on human D2L receptor was found to be 90%. Also, the inhibition at 0.001 µM at human 5-HT2A receptor (1 nM test drug) was determined as 72%. Moreover, the inhibition at 0.1 µM was 98% on human 5-HT6 receptor and 53% on human α1D receptor.
The matching figures for `CC(C)c1ccc2cc(C(=O)N3CCC[C@H]3CCN3CCC(C(=O)c4ccc(F)cc4)CC3)[nH]c2c1` [Example 161, (S)-(2-(2-(4-(4-Fluorobenzoyl)piperidin-1-yl)ethyl)pyrrolidin-1-yl)(6-isopropyl-1H-indol-2-yl)methanone]: 49%, 69%, 97% and 66%.
For the compound `COc1c(F)ccc2[nH]c(C(=O)N3CCC[C@H]3CCN3CCC(C(=O)c4ccc(F)cc4)CC3)cc12` [Example 162, (S)-(5-Fluoro-4-methoxy-1H-indol-2-yl)(2-(2-(4-(4-fluorobenzoyl)piperidin-1-yl)ethyl)pyrrolidin-1-yl)methanone], on human D2L receptor, the inhibition at 0.01 µM worked out at 86%. Also, the inhibition at 0.001 µM on human 5-HT2A receptor (1 nM test drug) turned out to be 84%. Also, the results for the inhibition at 0.1 µM on human 5-HT6 receptor and on human α1D receptor were 93% and 79%, respectively.
The matching figures for `O=C(c1ccc(F)cc1)C1CCN(CC[C@@H]2CCCN2C(=O)c2[nH]c3cc(F)ccc3c2F)CC1` [Example 163, (S)-(3,6-Difluoro-1H-indol-2-yl)(2-(2-(4-(4-fluorobenzoyl)piperidin-1-yl)ethyl)pyrrolidin-1-yl)methanone]: 88%, 75%, 95% and 48%.
As to `O=C(c1ccc(F)cc1)C1CCN(CC[C@@H]2CCCN2C(=O)c2[nH]c3cc(OC(F)(F)F)ccc3c2F)CC1` [Example 164, (S)-(3-Fluoro-6-(trifluoromethoxy)-1H-indol-2-yl)(2-(2-(4-(4-fluorobenzoyl)piperidin-1-yl)ethyl)pyrrolidin-1-yl)methanone], the inhibition at 0.01 µM at human D2L receptor came to 79%. The inhibition at 0.001 µM at human 5-HT2A receptor (1 nM test drug) came to 56%. Moreover, the values for the inhibition at 0.1 µM at human 5-HT6 receptor and at human α1D receptor were 99% and 43%, respectively.
In the case of `O=C(c1ccc(F)cc1)C1CCN(CC[C@@H]2CCCN2C(=O)c2[nH]c3ccccc3c2F)CC1` [Example 165, (S)-(3-Fluoro-1H-indol-2-yl)(2-(2-(4-(4-fluorobenzoyl)piperidin-1-yl)ethyl)pyrrolidin-1-yl)methanone], on human D2L receptor, the inhibition at 0.01 µM was 90%. Further, at human 5-HT2A receptor (1 nM test drug), the inhibition at 0.001 µM is 74%. Also, the inhibition at 0.1 µM was determined as 90% on human 5-HT6 receptor and 53% on human α1D receptor.
With “(S)-(2-(2-(4-(4-Fluorobenzoyl)piperidin-1-yl)ethyl)pyrrolidin-1-yl)(1-methyl-1H-indol-5-yl)methanone [Example 169]”, the “BINDING INHIBITION RATE (%) D2L 10 nM” value at human D2L receptor came to 81%. For the same compound, the “BINDING INHIBITION RATE (%) 5HT2A 1 nM” value at human 5-HT2A receptor (1 nM test drug) was 47%. In addition, the “BINDING INHIBITION RATE (%) 5HT6 100 nM” value at human 5-HT6 receptor was 73%. Moreover, on human α1D receptor, the “BINDING INHIBITION RATE (%) α1D 100 nM” value came to 49%.
